“And” between values parts separate entries of the source, which are not always exact repeats. Equal entries are not always repeated. Toxic doses and inconclusive results are not listed. No stated cut-off is given here; in the data, active means T/C of 150% or more; inactive means T/C below 125%.
Test system: L1210 leukemia ip in BDF1 mice, survival T/C
Assay: NCI In Vivo Anticancer Drug Screen. Data for tumor model L1210 Leukemia (intraperitoneal) in B6D2F1 (BDF1) mice
Conditions: endpoint: mean survival time, higher = longer survival
Method in brief: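 Read-out is survival time, reported as the treated-group measurement over the vehicle-control measurement.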

[1] = dose: 100.0 mg/kg/injection, schedule: Q04DX002 (ip), vehicle: saline with Tween-80
[2] = dose: 100.0 mg/kg/injection, schedule: Q01DX001 (ip), vehicle: Klucel (hydroxypropylcellulose) (HPC)
[3] = dose: 200.0 mg/kg/injection, schedule: Q01DX001 (ip), vehicle: Klucel (hydroxypropylcellulose) (HPC)
[4] = dose: 400.0 mg/kg/injection, schedule: Q01DX001 (ip), vehicle: Klucel (hydroxypropylcellulose) (HPC)
[5] = dose: 100.0 mg/kg/injection, schedule: Q01DX009 (ip), vehicle: Klucel (hydroxypropylcellulose) (HPC)
[6] = dose: 200.0 mg/kg/injection, schedule: Q01DX009 (ip), vehicle: Klucel (hydroxypropylcellulose) (HPC)
[7] = dose: 100.0 mg/kg/injection, schedule: Q04DX002 (ip), vehicle: Klucel (hydroxypropylcellulose) (HPC)
[8] = dose: 200.0 mg/kg/injection, schedule: Q04DX002 (ip), vehicle: Klucel (hydroxypropylcellulose) (HPC)
[9] = dose: 400.0 mg/kg/injection, schedule: Q04DX002 (ip), vehicle: Klucel (hydroxypropylcellulose) (HPC)
[10] = dose: 100.0 mg/kg/injection, schedule: Q01DX001 (ip), vehicle: saline
[11] = dose: 100.0 mg/kg/injection, schedule: Q01DX009 (ip), vehicle: saline
[12] = dose: 200.0 mg/kg/injection, schedule: Q01DX001 (ip), vehicle: saline
[13] = dose: 400.0 mg/kg/injection, schedule: Q01DX001 (ip), vehicle: saline
[14] = dose: 400.0 mg/kg/injection, schedule: Q01DX009 (ip), vehicle: saline
[15] = dose: 75.0 mg/kg/injection, schedule: Q01DX001 (ip), vehicle: saline
[16] = dose: 100.0 mg/kg/injection, schedule: Q04DX003 (ip), vehicle: saline
[17] = dose: 200.0 mg/kg/injection, schedule: Q04DX003 (ip), vehicle: saline
[18] = dose: 400.0 mg/kg/injection, schedule: Q04DX003 (ip), vehicle: saline

Measured: T/C

CC(CO)[CH2][Sn]([c]1ccccc1)([c]1ccccc1)[c]1ccccc1 (stereo not given)
inactive: [1] 98 % of control and 101 % of control | dose: 200.0 mg/kg/injection, schedule: Q04DX002 (ip), vehicle: saline with Tween-80 98 % of control | dose: 400.0 mg/kg/injection, schedule: Q04DX002 (ip), vehicle: saline with Tween-80 95 % of control and 98 % of control

CC(C)OC(=O)C(=O)Nc1cccc(Cl)c1
inactive: [2] 108 % of control | [3] 95 % of control | [4] 95 % of control

Cc1ccc(NS(=O)(=O)c2ccccc2)c(C)c1
inactive: [5] 99 % of control | dose: 100.0 mg/kg/injection, schedule: Q04DX003 (ip), vehicle: Klucel (hydroxypropylcellulose) (HPC) 104 % of control | [6] 99 % of control | dose: 200.0 mg/kg/injection, schedule: Q04DX003 (ip), vehicle: Klucel (hydroxypropylcellulose) (HPC) 95 % of control | dose: 400.0 mg/kg/injection, schedule: Q01DX009 (ip), vehicle: Klucel (hydroxypropylcellulose) (HPC) 94 % of control | dose: 400.0 mg/kg/injection, schedule: Q04DX003 (ip), vehicle: Klucel (hydroxypropylcellulose) (HPC) 98 % of control

O=C(NO)c1cc(=O)[nH]o1
inactive: dose: 100.0 mg/kg/injection, schedule: Q04DX003 (ip), vehicle: saline with Tween-80 95 % of control | dose: 200.0 mg/kg/injection, schedule: Q04DX003 (ip), vehicle: saline with Tween-80 95 % of control | dose: 400.0 mg/kg/injection, schedule: Q04DX003 (ip), vehicle: saline with Tween-80 95 % of control

CCCCCCCCCCCCn1cnc2ncnc(Cl)c21
inactive: dose: 12.5 mg/kg/injection, schedule: Q01DX005 (ip), vehicle: other 102 % of control | dose: 25.0 mg/kg/injection, schedule: Q01DX005 (ip), vehicle: other 98 % of control | dose: 50.0 mg/kg/injection, schedule: Q01DX005 (ip), vehicle: other 98 % of control | dose: 100.0 mg/kg/injection, schedule: Q01DX005 (ip), vehicle: other 96 % of control

O=C(O)c1ccc[cH-]1.O=C(O)c1ccc[cH-]1.[Fe+2]
inactive: [7] 110 % of control | [8] 100 % of control | [9] 103 % of control

O=C(CCCC(=O)N/N=C/c1cc(Br)ccc1O)N/N=C\c1cc(Br)ccc1O
inactive: dose: 50.0 mg/kg/injection, schedule: Q01DX001 (ip), vehicle: saline 93 % of control | [10] 98 % of control | [11] 89 % of control | [12] 98 % of control | [13] 96 % of control | [14] 92 % of control

CC(=O)OCC1OC(N=C=S)C(OC(C)=O)C(OC(C)=O)C1OC(C)=O (stereo not given)
inactive: dose: 12.5 mg/kg/injection, schedule: Q01DX009 (ip), vehicle: saline with Tween-80 97 % of control | dose: 25.0 mg/kg/injection, schedule: Q01DX009 (ip), vehicle: saline with Tween-80 100 % of control | dose: 50.0 mg/kg/injection, schedule: Q01DX009 (ip), vehicle: saline with Tween-80 93 % of control

N/C=C(/NC(=O)c1ccccc1C(N)=O)C(=O)O
inactive: [15] 100 % of control | dose: 150.0 mg/kg/injection, schedule: Q01DX001 (ip), vehicle: saline 100 % of control | dose: 300.0 mg/kg/injection, schedule: Q01DX001 (ip), vehicle: saline 91 % of control

CC(=O)c1ccc(Cl)c([N+](=O)[O-])c1
inactive: [2] 91 % of control | [5] 105 % of control | [3] 97 % of control | [6] 100 % of control | [4] 96 % of control

O=S(=O)(O)c1ccccc1/C=N\N=C\c1ccccc1S(=O)(=O)O
inactive: [11] 107 % of control | [16] 107 % of control | dose: 200.0 mg/kg/injection, schedule: Q01DX009 (ip), vehicle: saline 112 % of control | [17] 107 % of control | dose: 265.0 mg/kg/injection, schedule: Q04DX003 (ip), vehicle: saline 107 % of control | [14] 105 % of control | [18] 104 % of control | dose: 600.0 mg/kg/injection, schedule: Q04DX003 (ip), vehicle: saline 93 % of control

CNc1[nH]c(=S)ncc1C
inactive: dose: 100.0 mg/kg/injection, schedule: Q01DX Z (ip), vehicle: methylcellulose (MC) 100 % of control | dose: 200.0 mg/kg/injection, schedule: Q01DX Z (ip), vehicle: methylcellulose (MC) 99 % of control

OC(COc1ccccc1)CN1CCN(c2ccccc2)CC1 (stereo not given)
inactive: [7] 98 % of control | [8] 102 % of control | [9] 95 % of control and 102 % of control

CCCCCCCCCCCCCC=C(C)C
inactive: dose: 100.0 mg/kg/injection, schedule: Q01DX001 (ip), vehicle: saline with Tween-80 94 % of control | dose: 200.0 mg/kg/injection, schedule: Q01DX001 (ip), vehicle: saline with Tween-80 94 % of control | dose: 400.0 mg/kg/injection, schedule: Q01DX001 (ip), vehicle: saline with Tween-80 87 % of control

COc1ccc(/C(C#N)=C2C=C(Cl)/C(=N/O)C=C/2Cl)cc1
inactive: [10] 91 % of control | dose: 100.0 mg/kg/injection, schedule: Q01DX009 (ip), vehicle: saline with Tween-80 93 % of control | [16] 91 % of control | [12] 95 % of control | dose: 200.0 mg/kg/injection, schedule: Q01DX009 (ip), vehicle: saline with Tween-80 98 % of control | [17] 87 % of control | [13] 96 % of control | [18] 86 % of control

Oc1ccc(CNCc2ccccc2)c2cccnc12
inactive: [15] 115 % of control

O=C(Nc1ccc(NC(=O)Nc2cccc(C3=NCCCN3)c2)cc1)Nc1ccc(C2=NCCCN2)cc1
inactive: dose: 1.25 mg/kg/injection, schedule: Q01DX Z (ip), vehicle: carboxymethylcellulose (CMC) 102 % of control | dose: 2.5 mg/kg/injection, schedule: Q01DX Z (ip), vehicle: carboxymethylcellulose (CMC) 109 % of control | dose: 5.0 mg/kg/injection, schedule: Q01DX Z (ip), vehicle: carboxymethylcellulose (CMC) 113 % of control | dose: 50.0 mg/kg/injection, schedule: Q01DX Z (oral), vehicle: carboxymethylcellulose (CMC) 102 % of control | dose: 100.0 mg/kg/injection, schedule: Q01DX Z (oral), vehicle: carboxymethylcellulose (CMC) 107 % of control | dose: 200.0 mg/kg/injection, schedule: Q01DX Z (oral), vehicle: carboxymethylcellulose (CMC) 104 % of control | dose: 400.0 mg/kg/injection, schedule: Q01DX Z (oral), vehicle: carboxymethylcellulose (CMC) 102 % of control
active: dose: 8.5 mg/kg/injection, schedule: Q01DX Z (ip), vehicle: carboxymethylcellulose (CMC) 170 % of control | dose: 10.0 mg/kg/injection, schedule: Q01DX Z (ip), vehicle: carboxymethylcellulose (CMC) 167 % of control | dose: 15.0 mg/kg/injection, schedule: Q01DX Z (ip), vehicle: carboxymethylcellulose (CMC) 157 % of control | dose: 17.0 mg/kg/injection, schedule: Q01DX Z (ip), vehicle: carboxymethylcellulose (CMC) 151 % of control

O=C1NC2Cc3ccccc3CC12 (stereo not given)
inactive: [7] 102 % of control | [8] 100 % of control | [9] 86 % of control

CN(Cc1cnc2nc(N)nc(N)c2n1)c1ccc(C(=O)NC(CCC(=O)O)C(=O)O)cc1Cl (stereo not given)
active: dose: 2.0 mg/kg/injection, schedule: Q01DX015 (ip), vehicle: saline 291 % of control | dose: 7.5 mg/kg/injection, schedule: Q01DX015 (ip), vehicle: saline 166 % of control
inactive: dose: 1.25 mg/kg/injection, schedule: Q01DX001 (ip), vehicle: saline 114 % of control | dose: 2.5 mg/kg/injection, schedule: Q01DX001 (ip), vehicle: saline 114 % of control | dose: 5.0 mg/kg/injection, schedule: Q01DX001 (ip), vehicle: saline 118 % of control

Cc1cc(N(CCOS(C)(=O)=O)CCOS(C)(=O)=O)ccc1C=Nc1ccc2ccccc2c1
inactive: dose: 13.3 mg/kg/injection, schedule: Q04DX003 (ip), vehicle: Klucel (hydroxypropylcellulose) (HPC) 116 % of control | dose: 20.0 mg/kg/injection, schedule: Q04DX003 (ip), vehicle: Klucel (hydroxypropylcellulose) (HPC) 108 % of control and 117 % of control | dose: 80.0 mg/kg/injection, schedule: Q04DX003 (ip), vehicle: Klucel (hydroxypropylcellulose) (HPC) 112 % of control

O=C(Nc1ccccn1)c1ccccc1
inactive: [1] 99 % of control

OCC1OC(n2cnc3ccccc32)C(O)C1O (stereo not given)
inactive: [10] 100 % of control | [12] 100 % of control | [13] 95 % of control

— PubChem BioAssay AID248 (DTP/NCI, 2004)
